Results: US9827224B2, “Methods and compositions for ameliorating pancreatic cancer” (University of South Alabama, priority 2010, dated 2017)

Columns and labels:
ERK = assay: Western blot of ERK activation (total and phospho-forms) in Panc1 and MiaPaCa cells; format: cell-based, Human; settings: for effect on CXCL12-induced activation of ERK pathway: pre-treatment 1 h (AMD3100, LY294002 20 μM, PD98059 25 μM), 15 min post-CXCL12, Panc1 and MiaPaCa
Description: (§1) Cells were processed for protein extraction and western blotting using standard procedures. Briefly, cells were washed twice with PBS and scraped into NP-40 lysis buffer containing protease and phosphotase inhibitors. Cell lysates were passed through a needle syringe to facilitate the disruption of the cell membranes and were centrifuged at 14,000 rpm for 20 min at 4° C., and supematants were collected. Proteins (10-50 μg) were resolved by electrophoresis on 10% SDS-PAGE, transferred onto polyvinylidene difluoride (PVDF) membrane and subjected to standard immunodetection procedure using specific antibodies: AKT, pAKT ERK1/2, pERK1/2, Bcl-2, Bcl-xL, FAk, pFAk, Survivin, β-catenin and BAD (1:1000), pBAD (1:500), Notch-1 (1:200) and β-actin (1:20000). All secondary antibodies were used at 1:2500 dilutions. Blots were processed with ECL Plus Western Blotting detection kit and the signal detected using an LAS-3000 image analyzer (Fuji Photo Film Co., Tokyo, Japan).

[1] = human volunteers, intra-venous injection; cited from earlier work
Akt = assay: Western blot of Akt activation (total and phospho-forms) in Panc1 and MiaPaCa cells; format: cell-based, Human
Description: as §1

Panc1 and MiaPaCa cells [2] = assay: Cell viability assay (Vybrant MTT cell proliferation assay), results stated for both cell lines together; format: cell-based, Human; settings: for effect on CXCL12-induced chemo-resistance (gemcitabine): pre-treatment 1 h (AMD3100 5 μg/mL, LY294002 20 μM, PD98059 25 μM), then gemcitabine + CXCL12
Description: (§2) After 72 h of treatment, cell growth was determined by using Vybrant MIT cell proliferation assay. Growth was calculated as percent (%)=[{(A/B)−1}×100], where A and B are the absorbance of treatment and control cells, respectively. To examine the effect of CXCR4 targeting, cells were pre-incubated with small molecule CXCR4 antagonist, AMD3100 (5 μg/mL), for 1 h. To delineate the role of Akt and ERK pathways, cells were pretreated for 1 h with LY294002 (20 μM) and PD98059 (25 μM), respectively.

Panc1 cells = assay: Cell viability assay (MTT), gemcitabine cytotoxicity; format: cell-based, Human; settings: 5.0 μM gemcitabine, 72 h, serum-containing media, compared to untreated cells
Description: as §2

MiaPaCa cells = assay: as above; format: cell-based, Human; settings: 5.0 μM gemcitabine, 72 h, serum-containing media, compared to untreated cells
Description: as §2

activated caspases = assay: Measurement of apoptosis in situ (CaspACE FITC-VAD-FMK); format: cell-based, Human; settings: gemcitabine 5 μM + CXCL12 100 ng/mL, compared to gemcitabine alone
Description: Apoptosis was detected by staining the cells with CaspACE FITC-VAD-FMK solution in PBS for 2 h at 37° C. CaspACE™ FITC-VAD-FMK In Situ Marker is a fluorescent analog of the pan-caspase inhibitor Z-VAD-FMK (carbobenzoxy-valyl-alanylaspartyl-[O-methyl]-fluoromethylketone), which irreversibly binds to activated caspases and is a surrogate for caspase activity in situ. Following staining with CaspACE FITC-V AD-FMK, cells were fixed with 4% paraformaldehydede at room temperature and washed with PBS. The bound fluorescent marker was detected under a Nikon Eclipse TE2000-U fluorescent microscope (Nikon Instruments Inc, Melville, N.Y.).

[3] = tested on: Bcl-2, Bcl-xL, Notch-1 and survivin; assay: Western blot of survival protein expression in pancreatic cancer cells; format: cell-based, Human; settings: CXCL12-treated pancreatic cancer cells
Description: as §1

BAD = assay: Western blot of BAD phosphorylation in Panc1 and MiaPaCa cells; format: cell-based, Human; settings: CXCL12-treated Panc1 and MiaPaCa
Description: as §1

SHH = assay: CXCL12-induced sonic hedgehog (SHH) expression by Q-RT-PCR and Western blot; format: cell-based, Human; settings: CXCL12, 0-48 hours, Panc1 and MiaPaCa
Description: Panc1 and MiaPaCa cells were treated with CXCL12 and expression of SHH was measured by Q-RT-PCR and Western blot analysis.
Q-RT-PCR: Pancreatic cancer cells (Panc1 and MiaPaCa) were treated with CXCL12 for different time point (0, 4, 8, 24, 48 hours) for Q-RT-PCR analysis. To confirm the induced expression of sonic hegedehog (SHH), reverse transcriptase based-PCR (RT-PCR) analysis was performed, using SHH-specific primers. Briefly, cDNA was synthesized from 5 μg total RNA using SuperScript™ II Reverse Transcriptase (Invitrogen) and oligo(dT) primer. Two micro liter of first strand cDNA (1:10 dilution) was amplified using the SHH specific and GAPDH specific primers control. Amplified products were resolved through a 1.5% agarose gel containing ethidium bromide and analyzed using an Alpha Imager gel documentation system (Alphalnnotech, San Leandro, Calif.).
Immunoblot analyses: NP-40 lysis buffer containing protease and phosphatase inhibitors (Roche Diagnostics. 50 μg protein was resolved by SDS-PAGE (8-12%). The primary antibodies were: anti-sonic hedgehog (SHH, 1:2000, rabbit monoclonal, Millipore. Secondary antibody (Santa Cruz Biotechnology) was horseradish peroxidase (HRP)-conjugated and was used a 1:2000 dilution. Bound immunocomplexes were detected using ECL Plus chemiluminescent detection reagent (GE Healthcare, Piscataway, N.J.).

NF-κB = NF-κB transcriptional activity assay (luciferase reporter); format: cell-based, Human; settings: 24 h
Description: To measure the LEF/TCF and NF-κB transcriptional activity, pancreatic cancer cells (1×10^5) were seeded in 12-well plates. After 24 h incubation, cells were transiently transfected with the luciferase promoter-reporter constructs (TOP flash, FOPflash or pGL4.32[luc2P/NF-kB-RE/Hygro]. TOPflash reporter plasmid contains three copies of the Tcf/Lef sites upstream of a thymidine kinase (TK) promoter and the Firefly luciferase gene, while in FOPflash, Tcf/Lef sites are mutated and therefore it serves as a control for measuring nonspecific activation of the reporter. Cells were also co-transfected with a reporter plasmid, containing Renilla reniformis luciferase gene downstream of the TK promoter, to control for the transfection efficiency. All transfections were performed using FuGene as a transfection reagent according to the manufacturers' recommendations. Cells were treated with CXCL12 (100 ng) 24 h post TOPflash/FOPflash or pGLA.32[luc2P/NF-kB-RE/Hygro] transfection, and after the next 24 h, total protein was isolated in passive lysis buffer. Luciferase activity was measured using the Dual Luciferase Assay System. All experiments were done in triplicate and relative luciferase activity reported as the fold induction after normalization for transfection efficiency.

Panc1 and MiaPaCa cells [4] = assay: DNA fragmentation assay; format: cell-based, Human; settings: gemcitabine 5 and 10 μM + CXCL12 100 ng/mL, 48 h, compared to gemcitabine alone
Description: Cells were washed twice with phosphate buffer saline (PBS) and DNA was extracted using DNAzol reagent. 2 μg of isolated DNA was resolved on 1.0% agarose gel containing ethidium-bromide (EtBr) and observed under a LAS-3000 image analyzer (Fuji Photo Film Co.).

FAK = assay: Western blot of FAK activation in Panc1 and MiaPaCa cells; format: cell-based, Human; settings: CXCL12 100 ng/mL, 5-30 min
Description: as §1

[5] = CXCL12 100 ng/mL, 5-30 min, Panc1 and MiaPaCa

c1cc(CN2CCCNCCNCCCNCC2)ccc1CN1CCCNCCNCCCNCC1 [AMD3100, Plerixafor, reference compound]
effect on CXCL12-induced activation of ERK pathway (ERK): inhibited
side effects [1]: minimal side effects
effect on CXCL12-induced activation of Akt pathway (Akt; pre-treatment 1 h (AMD3100 5 g/mL, LY294002 20 μM, PD98059 25 μM), 15 min post-CXCL12, Panc1 and MiaPaCa): inhibited
effect on CXCL12-induced chemo-resistance (gemcitabine) (Panc1 and MiaPaCa cells [2]): abolished
effect on CXCL12-induced growth promotion (Panc1 and MiaPaCa cells [2]; pre-treatment 1 h, AMD3100 5 μg/mL, then CXCL12): abolished

COc1cccc(-c2cc(=O)c3ccccc3o2)c1N [PD98059, reference compound]
effect on CXCL12-induced activation of ERK pathway (ERK): specifically inhibited
effect on CXCL12-induced chemo-resistance (gemcitabine) (Panc1 and MiaPaCa cells [2]): significant negative impact

Nc1ccn([C@@H]2O[C@H](CO)[C@@H](O)C2(F)F)c(=O)n1 [gemcitabine]
gemcitabine cytotoxicity (Panc1 cells): 52.3%
gemcitabine cytotoxicity (MiaPaCa cells): 50.7%

CXCL12: Recombinant human CXCL12, a ligand for CXCR4
activity of caspases (activated caspases): enhanced activity of caspases
expression of Bcl-2, Bcl-xL, Notch-1 and survivin proteins [3]: significantly induced
activation of ERK (phospho-form) (ERK; [5]): significant activation
level of phospho-BAD (BAD): increased level of phospho-BAD
expression of SHH (SHH): induced expression of SHH
induction of transcriptional activity of NF-κB responsive promoter (NF-κB; MiaPaCa, CXCL12-treated): 2.26 fold
induction of transcriptional activity of NF-κB responsive promoter (NF-κB; Panc1, CXCL12-treated): 2.98 fold
DNA fragmentation (Panc1 and MiaPaCa cells [4]): reduced DNA fragmentation
activation of Akt (phospho-form) (Akt; [5]): significant activation
activation of FAK (phospho-form) (FAK): significant activation
resistance to gemcitabine-cytotoxicity (Panc1 and MiaPaCa cells [2]; CXCL12 100 ng/mL, gemcitabine 0-10 μM, both cell lines, p<0.05): induced significant resistance
induction of growth (Panc1 and MiaPaCa cells [2]; CXCL12 100 ng/ml, absence of serum growth factors, range over MiaPaCa and Panc1): 29-33%
increase of growth (Panc1 and MiaPaCa cells [2]; CXCL12 100 ng/ml, presence of serum growth factors, range over MiaPaCa and Panc1): 11-13%
